In patent US20170051034A1 (Novo Nordisk A/S, priority 2010, published 2017):
Numbered stars: 1 amine (or outer) side, 2 acyl side, 3 side chain; on linkers, the order of the positions; unused ones are H or OH. Side chains are listed from the residue outwards. Peptide text beside a SMILES is read from it. * marks the point of attachment. Palmitoyl(16-(5-tetrazolyl)) = O=C(CCCCCCCCCCCCCCCc1nnn[nH]1)*; C20 diacid = O=C(O)CCCCCCCCCCCCCCCCCCC(=O)*; C18 diacid = O=C(O)CCCCCCCCCCCCCCCCC(=O)*; C16 diacid = O=C(O)CCCCCCCCCCCCCCC(=O)*; γGlu = O=C(O)[C@H](CCC(=O)[*:2])N[*:1]; AEEA = NCCOCCOCC(=O)O

Biological target: glucagon receptor (Homo sapiens, UniProt P47871)
Assay: cell-based
Method: The cells (14000 per well) were incubated (37° C., 5% CO2) overnight in 384-well plates. Next day the cells were loaded with a calcium responsive dye that only distributed into the cytoplasm. Probenecid, an inhibitor of the organic anion transporter, was added to prevent the dye from leaving the cell. A PDE inhibitor was added to prevent formatted cAMP from being degraded. […] End point data were collected after 6 minutes. An increase in intracellular cAMP was proportional to an increased in calcium concentrations in the cytoplasm. […] EC50-values were calculated in Prism5.

glucagon receptor, sequence (P47871 26-477): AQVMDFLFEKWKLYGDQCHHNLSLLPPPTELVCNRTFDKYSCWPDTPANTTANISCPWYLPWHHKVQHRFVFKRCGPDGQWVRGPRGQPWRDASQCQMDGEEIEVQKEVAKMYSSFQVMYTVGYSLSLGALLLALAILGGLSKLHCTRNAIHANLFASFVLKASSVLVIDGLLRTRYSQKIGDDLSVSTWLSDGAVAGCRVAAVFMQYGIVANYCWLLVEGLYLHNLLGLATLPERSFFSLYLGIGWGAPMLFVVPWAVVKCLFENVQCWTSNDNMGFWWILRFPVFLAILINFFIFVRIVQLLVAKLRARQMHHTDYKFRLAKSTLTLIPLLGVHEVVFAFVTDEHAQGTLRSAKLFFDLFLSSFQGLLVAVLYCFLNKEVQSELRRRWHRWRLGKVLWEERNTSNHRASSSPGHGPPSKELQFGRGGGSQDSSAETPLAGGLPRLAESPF

Q: With `CC(C)C[C@H](NC(=O)[C@H](Cc1ccc(O)cc1)NC(=O)[C@H](CCCCN)NC(=O)[C@H](CO)NC(=O)[C@H](Cc1ccc(O)cc1)NC(=O)[C@H](CC(=O)O)NC(=O)[C@H](CO)NC(=O)[C@@H](NC(=O)[C@H](Cc1ccccc1)NC(=O)[C@@H](NC(=O)CNC(=O)[C@H](CCC(N)=O)NC(=O)[C@H](CO)NC(=O)[C@@H](N)Cc1c[nH]cn1)[C@@H](C)O)[C@@H](C)O)C(=O)N[C@@H](CC(=O)O)C(=O)N[C@@H](CO)C(=O)N[C@@H](CCCCN)C(=O)N[C@@H](CCCNC(=N)N)C(=O)N[C@@H](C)C(=O)N[C@@H](CCC(N)=O)C(=O)N[C@@H](CCC(=O)O)C(=O)N[C@@H](Cc1ccccc1)C(=O)N[C@H](C(=O)N[C@@H](CCC(N)=O)C(=O)N[C@@H](Cc1c[nH]c2ccccc12)C(=O)N[C@@H](CC(C)C)C(=O)N[C@@H](CC(C)C)C(=O)N[C@@H](CCCCNC(=O)COCCOCCNC(=O)COCCOCCNC(=O)CC[C@H](NC(=O)CCCCCCCCCCCCCCCCC(=O)O)C(=O)O)C(=O)N[C@H](C(N)=O)[C@@H](C)O)C(C)C` [Example 43, N^ε28 ([2-[2-[2-[[2-[2-[2-[[(4S)-5-hydroxy-4-[(18-hydroxy-18-oxooctadecanoyl)amino]-5-oxopentanoyl]amino]ethoxy]ethoxy]acetyl]amino]ethoxy]ethoxy]acetyl]) [Lys^17, Glu^21 Leu^27, Lys^28] Glucagon peptide amide] (H-HSQGTFTSDYSKYLDSKRAQEFVQWLLK([AEEA-AEEA-γGlu-C18 diacid])T-NH2; N-terminus assumed) as the molecule, how does the EC50 read?
A: Its EC50 is 0.003 nM.

Q: With `CC(C)C[C@H](NC(=O)[C@H](Cc1ccc(O)cc1)NC(=O)[C@H](CCCCN)NC(=O)[C@H](CO)NC(=O)[C@H](Cc1ccc(O)cc1)NC(=O)[C@H](CC(=O)O)NC(=O)[C@H](CO)NC(=O)[C@@H](NC(=O)[C@H](Cc1ccccc1)NC(=O)[C@@H](NC(=O)CNC(=O)[C@H](CCC(N)=O)NC(=O)[C@H](CO)NC(=O)[C@@H](N)Cc1c[nH]cn1)[C@@H](C)O)[C@@H](C)O)C(=O)N[C@@H](CC(=O)O)C(=O)N[C@@H](CO)C(=O)N[C@@H](CCCCN)C(=O)N[C@@H](CCCCN)C(=O)N[C@@H](C)C(=O)N[C@@H](CCC(N)=O)C(=O)N[C@@H](CCC(=O)O)C(=O)N[C@@H](Cc1ccccc1)C(=O)N[C@H](C(=O)N[C@@H](CCCCNC(=O)COCCOCCNC(=O)COCCOCCNC(=O)CC[C@H](NC(=O)CCCCCCCCCCCCCCCCCCC(=O)O)C(=O)O)C(=O)N[C@@H](Cc1c[nH]c2ccccc12)C(=O)N[C@@H](CC(C)C)C(=O)N[C@@H](CC(C)C)C(=O)N[C@@H](CC(N)=O)C(=O)N[C@H](C(=O)O)[C@@H](C)O)C(C)C` [Example 66, N^ε24-[2-[2-[2-[[2-[2-[2-[[(4S)-4-carboxy-4-(19-carboxynonadecanoylamino)butanoyl]amino]ethoxy]ethoxy]acetyl]amino]ethoxy]ethoxy]acetyl]-[Lys^17,Lys^18,Glu^21,Lys^24,Leu^27]-Glucagon] (H-HSQGTFTSDYSKYLDSKKAQEFVK([AEEA-AEEA-γGlu-C20 diacid])WLLNT-OH) as the molecule, how does the EC50 read?
A: The EC50 was 6.35 nM.

Q: With `CC(C)C[C@H](NC(=O)[C@H](Cc1ccc(O)cc1)NC(=O)[C@H](CCCCN)NC(=O)[C@H](CO)NC(=O)[C@H](Cc1ccc(O)cc1)NC(=O)[C@H](CC(=O)O)NC(=O)[C@H](CO)NC(=O)[C@@H](NC(=O)[C@H](Cc1ccccc1)NC(=O)[C@@H](NC(=O)CNC(=O)[C@H](CCC(N)=O)NC(=O)[C@H](CO)NC(=O)[C@@H](N)Cc1c[nH]cn1)[C@@H](C)O)[C@@H](C)O)C(=O)N[C@@H](CC(=O)O)C(=O)N[C@@H](CO)C(=O)N[C@@H](CCCCN)C(=O)N[C@@H](CCCCN)C(=O)N[C@@H](C)C(=O)N[C@@H](CCC(N)=O)C(=O)N[C@@H](CCC(=O)O)C(=O)N[C@@H](Cc1ccccc1)C(=O)N[C@H](C(=O)N[C@@H](CCCCNC(=O)COCCOCCNC(=O)COCCOCCNC(=O)CC[C@H](NC(=O)CCCCCCCCCCCCCCCCC(=O)O)C(=O)O)C(=O)N[C@@H](Cc1c[nH]c2ccccc12)C(=O)N[C@@H](CC(C)C)C(=O)N[C@@H](CC(C)C)C(=O)N[C@@H](CC(=O)O)C(=O)N[C@H](C(=O)O)[C@@H](C)O)C(C)C` [Example 67, N^ε24-[2-[2-[2-[[2-[2-[2-[[(4S)-4-carboxy-4-(17-carboxyheptadecanoylamino)butanoyl]amino]ethoxy]ethoxy]acetyl]amino]ethoxy]ethoxy]acetyl]-[Lys^17,Lys^18,Glu^21,Lys^24,Leu^27,Asp^28]-Glucagon] (H-HSQGTFTSDYSKYLDSKKAQEFVK([AEEA-AEEA-γGlu-C18 diacid])WLLDT-OH) as the molecule, how does the EC50 read?
A: Its EC50 is 0.051 nM.

Q: How did the EC50 turn out when `CC(C)C[C@H](NC(=O)[C@H](CC(C)C)NC(=O)[C@H](Cc1c[nH]c2ccccc12)NC(=O)[C@H](CCC(N)=O)NC(=O)[C@@H](NC(=O)[C@H](Cc1ccccc1)NC(=O)[C@H](CCC(=O)O)NC(=O)[C@H](CCC(N)=O)NC(=O)[C@H](C)NC(=O)[C@H](CCCCN)NC(=O)[C@H](CCCCN)NC(=O)[C@H](CO)NC(=O)[C@H](CC(=O)O)NC(=O)[C@H](CC(C)C)NC(=O)[C@H](Cc1ccc(O)cc1)NC(=O)[C@H](CCCCN)NC(=O)[C@H](CO)NC(=O)[C@H](Cc1ccc(O)cc1)NC(=O)[C@H](CC(=O)O)NC(=O)[C@H](CO)NC(=O)[C@@H](NC(=O)[C@H](Cc1ccccc1)NC(=O)[C@@H](NC(=O)CNC(=O)[C@H](CCC(N)=O)NC(=O)[C@H](CO)NC(=O)[C@@H](N)Cc1c[nH]cn1)[C@@H](C)O)[C@@H](C)O)C(C)C)C(=O)N[C@@H](CC(N)=O)C(=O)N[C@@H](CCCCNC(=O)COCCOCCNC(=O)COCCOCCNC(=O)CC[C@H](NC(=O)CCCCCCCCCCCCCCCCC(=O)O)C(=O)O)C(=O)O` [Example 68, N^ε29-[2-[2-[2-[[2-[2-[2-[[(4S)-4-carboxy-4-(17-carboxyheptadecanoylamino)butanoyl]amino]ethoxy]ethoxy]acetyl]amino]ethoxy]ethoxy]acetyl]-[Lys^17,Lys^18,Glu^21,Leu^27,Lys^29]-Glucagon] (H-HSQGTFTSDYSKYLDSKKAQEFVQWLLNK([AEEA-AEEA-γGlu-C18 diacid])-OH) was run?
A: Its EC50 is 0.053 nM.

Q: For `CC(C)C[C@H](NC(=O)[C@H](Cc1ccc(O)cc1)NC(=O)[C@H](CCCCN)NC(=O)[C@H](CO)NC(=O)[C@H](Cc1ccc(O)cc1)NC(=O)[C@H](CC(=O)O)NC(=O)[C@H](CO)NC(=O)[C@@H](NC(=O)[C@H](Cc1ccccc1)NC(=O)[C@@H](NC(=O)CNC(=O)[C@H](CCC(N)=O)NC(=O)[C@H](CO)NC(=O)[C@@H](N)Cc1c[nH]cn1)[C@@H](C)O)[C@@H](C)O)C(=O)N[C@@H](CC(=O)O)C(=O)N[C@@H](CO)C(=O)N[C@@H](CCCCN)C(=O)N[C@@H](CCCCN)C(=O)N[C@@H](C)C(=O)N[C@@H](CCC(N)=O)C(=O)N[C@@H](CCC(=O)O)C(=O)N[C@@H](Cc1ccccc1)C(=O)N[C@H](C(=O)N[C@@H](CCCCNC(=O)COCCOCCNC(=O)COCCOCCNC(=O)CC[C@H](NC(=O)CCCCCCCCCCCCCCC(=O)O)C(=O)O)C(=O)N[C@@H](Cc1c[nH]c2ccccc12)C(=O)N[C@@H](CC(C)C)C(=O)N[C@@H](CC(C)C)C(=O)N[C@@H](CO)C(=O)N[C@H](C(=O)O)[C@@H](C)O)C(C)C` [Example 69, N^ε24-[2-[2-[2-[[2-[2-[2-[[(4S)-4-carboxy-4-(15-carboxypentadecanoylamino)butanoyl]amino]ethoxy]ethoxy]acetyl]amino]ethoxy]ethoxy]acetyl]-[Lys^17,Lys^18,Glu^21,Lys^24,Leu^27,Ser^28]-Glucagon] (H-HSQGTFTSDYSKYLDSKKAQEFVK([AEEA-AEEA-γGlu-C16 diacid])WLLST-OH), which EC50 is on record?
A: The EC50 was 0.006 nM.

Q: With `CC(C)C[C@H](NC(=O)[C@H](Cc1ccc(O)cc1)NC(=O)[C@H](CCCCN)NC(=O)[C@H](CO)NC(=O)[C@H](Cc1ccc(O)cc1)NC(=O)[C@H](CC(=O)O)NC(=O)[C@H](CO)NC(=O)[C@@H](NC(=O)[C@H](Cc1ccccc1)NC(=O)[C@@H](NC(=O)CNC(=O)[C@H](CCC(N)=O)NC(=O)[C@H](CO)NC(=O)[C@@H](N)Cc1c[nH]cn1)[C@@H](C)O)[C@@H](C)O)C(=O)N[C@@H](CC(=O)O)C(=O)N[C@@H](CO)C(=O)N[C@@H](CCCCN)C(=O)N[C@@H](CCCCN)C(=O)N[C@@H](C)C(=O)N[C@@H](CCC(N)=O)C(=O)N[C@@H](CCC(=O)O)C(=O)N[C@@H](Cc1ccccc1)C(=O)N[C@H](C(=O)N[C@@H](CCCCNC(=O)COCCOCCNC(=O)COCCOCCNC(=O)CC[C@H](NC(=O)CCCCCCCCCCCCCCCc1nnn[nH]1)C(=O)O)C(=O)N[C@@H](Cc1c[nH]c2ccccc12)C(=O)N[C@@H](CC(C)C)C(=O)N[C@@H](CC(C)C)C(=O)N[C@@H](CO)C(=O)N[C@H](C(=O)O)[C@@H](C)O)C(C)C` [Example 70, N^ε24-[2-[2-[2-[[2-[2-[2-[[(4S)-4-carboxy-4-[16-(1H-tetrazol-5-yl)hexadecanoylamino]butanoyl]amino]ethoxy]ethoxy]acetyl]amino]ethoxy]ethoxy]acetyl]-[Lys^17,Lys^18,Glu^21,Lys^24,Leu^27,Ser^28]-Glucagon] (H-HSQGTFTSDYSKYLDSKKAQEFVK([AEEA-AEEA-γGlu-Palmitoyl(16-(5-tetrazolyl))])WLLST-OH) as the molecule, how does the EC50 read?
A: The EC50 was 0.134 nM.

Q: `CC(C)C[C@H](NC(=O)[C@H](Cc1ccc(O)cc1)NC(=O)[C@H](CCCCN)NC(=O)[C@H](CO)NC(=O)[C@H](Cc1ccc(O)cc1)NC(=O)[C@H](CC(=O)O)NC(=O)[C@H](CO)NC(=O)[C@@H](NC(=O)[C@H](Cc1ccccc1)NC(=O)[C@@H](NC(=O)CNC(=O)[C@H](CCC(N)=O)NC(=O)[C@H](CO)NC(=O)[C@@H](N)Cc1c[nH]cn1)[C@@H](C)O)[C@@H](C)O)C(=O)N[C@@H](CC(=O)O)C(=O)N[C@@H](CO)C(=O)N[C@@H](CCCCN)C(=O)N[C@@H](CCCCN)C(=O)N[C@@H](C)C(=O)N[C@@H](CCC(N)=O)C(=O)N[C@@H](CCC(=O)O)C(=O)N[C@@H](Cc1ccccc1)C(=O)N[C@H](C(=O)N[C@@H](CCCCNC(=O)COCCOCCNC(=O)CC[C@H](NC(=O)CCCCCCCCCCCCCCCCC(=O)O)C(=O)O)C(=O)N[C@@H](Cc1c[nH]c2ccccc12)C(=O)N[C@@H](CC(C)C)C(=O)N[C@@H](CC(C)C)C(=O)N[C@@H](CO)C(=O)N[C@H](C(=O)O)[C@@H](C)O)C(C)C` [Example 71, N^ε24-[2-[2-[2-[[(4S)-4-carboxy-4-(17-carboxyheptadecanoylamino)butanoyl]amino]ethoxy]ethoxy]acetyl]-[Lys^17,Lys^18,Glu^21,Lys^24,Leu^27,Ser^28]-Glucagon] (H-HSQGTFTSDYSKYLDSKKAQEFVK([AEEA-γGlu-C18 diacid])WLLST-OH) was tested. Which EC50 did it give?
A: The EC50 was 0.032 nM.
